Assay results taken from ChEMBL document CHEMBL2346657, “Synthesis of novel 2-amino-4-(5'-substituted 2'-phenyl-1H-indol-3'-yl)-6-aryl-4H-pyran-3-carbonitrile derivatives as antimicrobial and antioxidant agents” (2013).
Activity calls are given as the source filed them.

Experiments:
Format in all cases: functional
[1] = Antioxidant activity assessed as ferric ion reducing activity at 100 ug/ml by FRAP assay
Staphylococcus aureus [2] = experiment: Antimicrobial activity against Staphylococcus aureus ATCC 29513 at 750 ug/ml after 24 hrs by cup plate method; details: ATCC 29513, 24 h, read-out: IZ
Aspergillus niger [3] = experiment: Antimicrobial activity against Aspergillus niger MTCC 281 at 500 ug/ml after 72 hrs by cup plate method; details: MTCC 281, 72 h, read-out: IZ
Aspergillus niger [4] = experiment: Antimicrobial activity against Aspergillus niger MTCC 281 at 1000 ug/ml after 72 hrs by cup plate method; details: MTCC 281, 72 h, read-out: IZ
Escherichia coli [5] = experiment: Antimicrobial activity against Escherichia coli MTCC 723 at 500 ug/ml after 24 hrs by cup plate method; details: MTCC 723, 24 h, read-out: IZ
Aspergillus terreus [6] = experiment: Antimicrobial activity against Aspergillus terreus MTCC 1782 at 1000 ug/ml after 72 hrs by cup plate method; details: MTCC 1782, 72 h, read-out: IZ
Aspergillus niger [7] = experiment: Antimicrobial activity against Aspergillus niger MTCC 281 at 750 ug/ml after 72 hrs by cup plate method; details: MTCC 281, 72 h, read-out: IZ
Klebsiella pneumoniae [8] = experiment: Antimicrobial activity against Klebsiella pneumoniae NCTC 13368 at 1000 ug/ml after 24 hrs by cup plate method; details: NCTC 13368, 24 h, read-out: IZ
Staphylococcus aureus [9] = experiment: Antimicrobial activity against Staphylococcus aureus ATCC 29513 at 1000 ug/ml after 24 hrs by cup plate method; details: ATCC 29513, 24 h, read-out: IZ
Aspergillus oryzae [10] = experiment: Antimicrobial activity against Aspergillus oryzae MTCC 3567 at 1000 ug/ml after 72 hrs by cup plate method; details: MTCC 3567, 72 h, read-out: IZ
Aspergillus oryzae [11] = experiment: Antimicrobial activity against Aspergillus oryzae MTCC 3567 at 750 ug/ml after 72 hrs by cup plate method; details: MTCC 3567, 72 h, read-out: IZ
Pseudomonas aeruginosa [12] = experiment: Antimicrobial activity against Pseudomonas aeruginosa MTCC 1688 at 750 ug/ml after 24 hrs by cup plate method; details: MTCC 1688, 24 h, read-out: IZ
Aspergillus flavus [13] = experiment: Antimicrobial activity against Aspergillus flavus MTCC 1973 at 500 ug/ml after 72 hrs by cup plate method; details: MTCC 1973, 72 h, read-out: IZ
Pseudomonas aeruginosa [14] = experiment: Antimicrobial activity against Pseudomonas aeruginosa MTCC 1688 at 500 ug/ml after 24 hrs by cup plate method; details: MTCC 1688, 24 h, read-out: IZ
Klebsiella pneumoniae [15] = experiment: Antimicrobial activity against Klebsiella pneumoniae NCTC 13368 at 500 ug/ml after 24 hrs by cup plate method; details: NCTC 13368, 24 h, read-out: IZ
Aspergillus oryzae [16] = experiment: Antimicrobial activity against Aspergillus oryzae MTCC 3567 at 500 ug/ml after 72 hrs by cup plate method; details: MTCC 3567, 72 h, read-out: IZ
Pseudomonas aeruginosa [17] = experiment: Antimicrobial activity against Pseudomonas aeruginosa MTCC 1688 at 1000 ug/ml after 24 hrs by cup plate method; details: MTCC 1688, 24 h, read-out: IZ
Aspergillus terreus [18] = experiment: Antimicrobial activity against Aspergillus terreus MTCC 1782 at 750 ug/ml after 72 hrs by cup plate method; details: MTCC 1782, 72 h, read-out: IZ
Escherichia coli [19] = experiment: Antimicrobial activity against Escherichia coli MTCC 723 at 750 ug/ml after 24 hrs by cup plate method; details: MTCC 723, 24 h, read-out: IZ
Escherichia coli [20] = experiment: Antimicrobial activity against Escherichia coli MTCC 723 at 1000 ug/ml after 24 hrs by cup plate method; details: MTCC 723, 24 h, read-out: IZ
Aspergillus flavus [21] = experiment: Antimicrobial activity against Aspergillus flavus MTCC 1973 at 1000 ug/ml after 72 hrs by cup plate method; details: MTCC 1973, 72 h, read-out: IZ
Aspergillus flavus [22] = experiment: Antimicrobial activity against Aspergillus flavus MTCC 1973 at 750 ug/ml after 72 hrs by cup plate method; details: MTCC 1973, 72 h, read-out: IZ
[23] = Antioxidant activity assessed as metal chelating activity by measuring inhibition of ferrozine-Fe2+ complex formation at 25 to 100 ug/ml
Staphylococcus aureus [24] = experiment: Antimicrobial activity against Staphylococcus aureus ATCC 29513 at 500 ug/ml after 24 hrs by cup plate method; details: ATCC 29513, 24 h, read-out: IZ
Aspergillus terreus [25] = experiment: Antimicrobial activity against Aspergillus terreus MTCC 1782 at 500 ug/ml after 72 hrs by cup plate method; details: MTCC 1782, 72 h, read-out: IZ
Klebsiella pneumoniae [26] = experiment: Antimicrobial activity against Klebsiella pneumoniae NCTC 13368 at 750 ug/ml after 24 hrs by cup plate method; details: NCTC 13368, 24 h, read-out: IZ
[27] = tested on: Radical scavenging activity; experiment: Antioxidant activity assessed as DPPH radical scavenging activity at 100 ug/ml

| SMILES | zone of inhibition at 750 µg/mL (Staphylococcus aureus [2]) [mm] | zone of inhibition at 500 µg/mL (Aspergillus niger [3]) [mm] | zone of inhibition at 500 µg/mL (Escherichia coli [5]) [mm] | zone of inhibition at 1000 µg/mL (Aspergillus terreus [6]) [mm] | zone of inhibition at 750 µg/mL (Aspergillus niger [7]) [mm] | zone of inhibition at 1000 µg/mL (Klebsiella pneumoniae [8]) [mm] | zone of inhibition at 1000 µg/mL (Staphylococcus aureus [9]) [mm] | zone of inhibition at 1000 µg/mL (Aspergillus oryzae [10]) [mm] | zone of inhibition at 750 µg/mL (Aspergillus oryzae [11]) [mm] | zone of inhibition at 750 µg/mL (Pseudomonas aeruginosa [12]) [mm] | zone of inhibition at 500 µg/mL (Aspergillus flavus [13]) [mm] | zone of inhibition at 500 µg/mL (Pseudomonas aeruginosa [14]) [mm] | zone of inhibition at 500 µg/mL (Klebsiella pneumoniae [15]) [mm] | zone of inhibition at 500 µg/mL (Aspergillus oryzae [16]) [mm] | zone of inhibition at 1000 µg/mL (Pseudomonas aeruginosa [17]) [mm] | zone of inhibition at 750 µg/mL (Aspergillus terreus [18]) [mm] | zone of inhibition at 750 µg/mL (Escherichia coli [19]) [mm] | zone of inhibition at 1000 µg/mL (Escherichia coli [20]) [mm] | zone of inhibition at 1000 µg/mL (Aspergillus flavus [21]) [mm] | zone of inhibition at 750 µg/mL (Aspergillus flavus [22]) [mm] | other results |
| --- | --- | --- | --- | --- | --- | --- | --- | --- | --- | --- | --- | --- | --- | --- | --- | --- | --- | --- | --- | --- | --- |
| Cc1ccc(C2=CC(c3c(-c4ccccc4)[nH]c4ccc(Cl)cc34)c3c(N)n[nH]c3O2)cc1 (stereo unspecified) | 14 | 9 | 4 | 4 | 8 | 12 | 14 | 5 | 5 | 12 | 3 | 12 | 12 | 8 | 13 | 4 | 2 | 2 | 3 | 3 | Activity [1]: Active; zone of inhibition at 1000 µg/mL (Aspergillus niger [4]): 0 mm; Activity [23]: Active; zone of inhibition at 500 µg/mL (Staphylococcus aureus [24]): 14 mm; zone of inhibition at 500 µg/mL (Aspergillus terreus [25]): 5 mm; zone of inhibition at 750 µg/mL (Klebsiella pneumoniae [26]): 12 mm |
| N#CC1=C(N)OC(c2ccccc2)=CC1c1c(-c2ccccc2)[nH]c2ccccc12 (stereo unspecified) | 10 | 6 | 10 | 3 | 5 | 13 | 10 | 5 | 9 | 9 | 10 | 9 | 13 | 9 | 9 | 5 | 8 | 8 | 10 | 10 | zone of inhibition at 1000 µg/mL (Aspergillus niger [4]): 10 mm; Activity [27]: Active; Activity [23]: Active; zone of inhibition at 500 µg/mL (Staphylococcus aureus [24]): 10 mm; zone of inhibition at 500 µg/mL (Aspergillus terreus [25]): 9 mm; zone of inhibition at 750 µg/mL (Klebsiella pneumoniae [26]): 13 mm |
| Cc1ccc2[nH]c(-c3ccccc3)c(C3C=C(c4ccc(Cl)cc4)Oc4[nH]nc(N)c43)c2c1 (stereo unspecified) | 0 | 5 | 9 | 10 | 3 | 12 | 0 | 7 | 7 | 6 | 5 | 6 | 12 | 8 | 5 | 10 | 8 | 8 | 2 | 5 | zone of inhibition at 1000 µg/mL (Aspergillus niger [4]): 2 mm; Activity [27]: Active; Activity [23]: Active; zone of inhibition at 500 µg/mL (Staphylococcus aureus [24]): 2 mm; zone of inhibition at 500 µg/mL (Aspergillus terreus [25]): 10 mm; zone of inhibition at 750 µg/mL (Klebsiella pneumoniae [26]): 12 mm |
| Cc1ccc(C2=CC(c3c(-c4ccccc4)[nH]c4ccccc34)C(C#N)=C(N)O2)cc1 (stereo unspecified) | 0 | 8 | 10 | 5 | 8 | 5 | 0 | 8 | 9 | 8 | 8 | 9 | 8 | 5 | 6 | 6 | 10 | 10 | 10 | 9 | Activity [1]: Active; zone of inhibition at 1000 µg/mL (Aspergillus niger [4]): 8 mm; Activity [23]: Active; zone of inhibition at 500 µg/mL (Staphylococcus aureus [24]): 0 mm; zone of inhibition at 500 µg/mL (Aspergillus terreus [25]): 8 mm; zone of inhibition at 750 µg/mL (Klebsiella pneumoniae [26]): 6 mm |
| Cc1ccc2[nH]c(-c3ccccc3)c(C3C=C(c4ccccc4)Oc4nc[nH]c(=O)c43)c2c1 (stereo unspecified) | 10 | 5 | 8 | 3 | 4 | 5 | 10 | 9 | 9 | 5 | 8 | 5 | 5 | 9 | 5 | 3 | 6 | 6 | 8 | 8 | Activity [1]: Active; zone of inhibition at 1000 µg/mL (Aspergillus niger [4]): 4 mm; Activity [23]: Active; zone of inhibition at 500 µg/mL (Staphylococcus aureus [24]): 11 mm; zone of inhibition at 500 µg/mL (Aspergillus terreus [25]): 4 mm; zone of inhibition at 750 µg/mL (Klebsiella pneumoniae [26]): 5 mm |
| Cc1ccc(C2=CC(c3c(-c4ccccc4)[nH]c4ccc(C)cc34)c3c(N)n[nH]c3O2)cc1 (stereo unspecified) | 5 | 9 | 8 | 0 | 9 | 10 | 5 | 9 | 9 | 4 | 4 | 8 | 11 | 10 | 4 | 0 | 9 | 10 | 3 | 4 | Activity [27]: Active; Activity [23]: Active; zone of inhibition at 500 µg/mL (Staphylococcus aureus [24]): 7 mm; zone of inhibition at 500 µg/mL (Aspergillus terreus [25]): 0 mm; zone of inhibition at 750 µg/mL (Klebsiella pneumoniae [26]): 10 mm |
| Cc1ccc(C2=CC(c3c(-c4ccccc4)[nH]c4ccccc34)c3c(N)nc(=O)[nH]c3O2)cc1 (stereo unspecified) | 3 | 5 | 7 | 3 | 3 | 3 | 5 | 10 | 10 | 3 | 3 | 5 | 6 | 10 | 3 | 3 | 7 | 8 | 3 | 3 | zone of inhibition at 1000 µg/mL (Aspergillus niger [4]): 2 mm; Activity [27]: Active; Activity [23]: Active; zone of inhibition at 500 µg/mL (Staphylococcus aureus [24]): 5 mm; zone of inhibition at 500 µg/mL (Aspergillus terreus [25]): 3 mm; zone of inhibition at 750 µg/mL (Klebsiella pneumoniae [26]): 4 mm |
